Measured values: ChEMBL document CHEMBL5705893, “Targeting the mitotic checkpoint for cancer therapy with NMS-P715, an inhibitor of MPS1 kinase” (Cancer Res, 2010)
pEC50, pIC50: −log10 of the molar value.

What was measured:
[1] = target: T1, Dual specificity protein kinase TTK (Homo sapiens, UniProt P33981); experiment: Inhibition of MPS1 in human taxol-arrested U2OS cells assessed as effect on histone H3 phosphorylation at ser10 residue incubated for 2 hrs by arrayscan analysis; type: cell-based
T1 sequence (P33981 whole entry): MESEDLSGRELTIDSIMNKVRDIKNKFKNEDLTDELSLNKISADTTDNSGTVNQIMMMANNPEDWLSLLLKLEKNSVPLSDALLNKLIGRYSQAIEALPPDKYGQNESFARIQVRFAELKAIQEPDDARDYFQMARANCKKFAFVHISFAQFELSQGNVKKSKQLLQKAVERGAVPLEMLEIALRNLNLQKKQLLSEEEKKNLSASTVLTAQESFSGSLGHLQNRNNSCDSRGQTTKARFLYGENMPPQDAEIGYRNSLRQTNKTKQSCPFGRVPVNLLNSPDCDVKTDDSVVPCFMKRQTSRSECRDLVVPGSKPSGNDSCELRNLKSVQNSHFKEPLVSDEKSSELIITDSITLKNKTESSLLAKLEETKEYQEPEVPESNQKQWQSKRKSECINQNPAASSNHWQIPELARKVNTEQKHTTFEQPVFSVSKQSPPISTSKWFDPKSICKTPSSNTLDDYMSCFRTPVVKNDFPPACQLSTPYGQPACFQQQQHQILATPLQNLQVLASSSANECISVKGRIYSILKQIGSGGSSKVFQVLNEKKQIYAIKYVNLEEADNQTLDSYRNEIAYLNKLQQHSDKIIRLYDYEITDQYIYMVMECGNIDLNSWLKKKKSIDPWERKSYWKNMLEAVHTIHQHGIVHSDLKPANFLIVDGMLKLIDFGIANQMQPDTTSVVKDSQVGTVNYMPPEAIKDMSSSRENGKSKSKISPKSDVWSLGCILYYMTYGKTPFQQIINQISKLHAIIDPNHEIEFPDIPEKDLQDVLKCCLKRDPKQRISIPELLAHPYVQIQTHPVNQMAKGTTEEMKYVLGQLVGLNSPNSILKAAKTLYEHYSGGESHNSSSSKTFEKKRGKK

[2] = target: Eukaryotic translation initiation factor 2-alpha kinase 3 (Homo sapiens, UniProt Q9NZJ5); experiment: Inhibition of recombinant PERK (unknown origin)
Sequence of Eukaryotic translation initiation factor 2-alpha kinase 3 (Q9NZJ5 whole entry): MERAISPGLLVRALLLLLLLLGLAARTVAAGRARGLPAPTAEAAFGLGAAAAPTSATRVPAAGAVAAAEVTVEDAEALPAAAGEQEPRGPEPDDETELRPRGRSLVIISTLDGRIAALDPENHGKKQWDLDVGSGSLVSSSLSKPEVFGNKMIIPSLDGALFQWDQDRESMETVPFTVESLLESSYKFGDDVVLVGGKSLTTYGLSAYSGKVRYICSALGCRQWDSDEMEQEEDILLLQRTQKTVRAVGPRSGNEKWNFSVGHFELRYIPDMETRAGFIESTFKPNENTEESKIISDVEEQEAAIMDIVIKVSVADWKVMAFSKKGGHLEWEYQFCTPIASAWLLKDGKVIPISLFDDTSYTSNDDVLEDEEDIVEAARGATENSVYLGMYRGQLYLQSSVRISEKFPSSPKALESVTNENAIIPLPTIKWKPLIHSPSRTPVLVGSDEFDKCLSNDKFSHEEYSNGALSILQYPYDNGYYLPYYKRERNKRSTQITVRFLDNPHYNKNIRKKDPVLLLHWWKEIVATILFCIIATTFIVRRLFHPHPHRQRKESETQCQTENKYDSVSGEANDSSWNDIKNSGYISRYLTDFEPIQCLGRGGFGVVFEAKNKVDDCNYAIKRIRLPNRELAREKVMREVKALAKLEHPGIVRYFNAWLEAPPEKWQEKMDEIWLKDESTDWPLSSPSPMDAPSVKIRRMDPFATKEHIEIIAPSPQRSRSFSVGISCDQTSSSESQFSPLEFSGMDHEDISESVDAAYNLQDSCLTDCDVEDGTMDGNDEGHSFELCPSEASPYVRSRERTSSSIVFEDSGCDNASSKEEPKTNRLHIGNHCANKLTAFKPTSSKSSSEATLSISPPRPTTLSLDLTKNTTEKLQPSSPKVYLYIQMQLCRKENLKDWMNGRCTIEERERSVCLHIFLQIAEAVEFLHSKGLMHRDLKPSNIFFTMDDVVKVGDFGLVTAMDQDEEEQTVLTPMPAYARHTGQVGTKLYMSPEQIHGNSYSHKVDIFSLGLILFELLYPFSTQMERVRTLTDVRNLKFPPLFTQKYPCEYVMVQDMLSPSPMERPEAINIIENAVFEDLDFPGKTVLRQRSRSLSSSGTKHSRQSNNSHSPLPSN

[3] = target: Mitotic checkpoint serine/threonine-protein kinase BUB1 (Homo sapiens, UniProt O43683); experiment: Inhibition of recombinant BUB1 (unknown origin)
[4] = target: Serine/threonine-protein kinase 26 (Homo sapiens, UniProt Q9P289); experiment: Inhibition of recombinant MST4 (unknown origin)
Sequence of Serine/threonine-protein kinase 26 (Q9P289 whole entry): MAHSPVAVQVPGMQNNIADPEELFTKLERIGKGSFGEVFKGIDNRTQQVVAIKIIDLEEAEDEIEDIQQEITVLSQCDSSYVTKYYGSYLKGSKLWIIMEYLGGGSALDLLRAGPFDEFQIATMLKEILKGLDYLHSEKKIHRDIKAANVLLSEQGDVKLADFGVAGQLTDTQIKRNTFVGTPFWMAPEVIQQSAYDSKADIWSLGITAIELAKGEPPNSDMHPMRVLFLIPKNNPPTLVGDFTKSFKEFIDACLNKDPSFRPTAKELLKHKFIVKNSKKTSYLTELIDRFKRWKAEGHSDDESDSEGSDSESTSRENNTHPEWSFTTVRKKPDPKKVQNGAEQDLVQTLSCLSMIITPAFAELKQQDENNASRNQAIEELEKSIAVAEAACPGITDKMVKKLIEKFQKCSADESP

[5] = target: Non-receptor tyrosine-protein kinase TYK2 (Homo sapiens, UniProt P29597); experiment: Inhibition of recombinant TYK 2 (unknown origin)
[6] = target: Serine/threonine-protein kinase Nek6 (Homo sapiens, UniProt Q9HC98); experiment: Inhibition of recombinant NEK6 (unknown origin)
[7] = target: Mitogen-activated protein kinase 1 (Homo sapiens, UniProt P28482); experiment: Inhibition of recombinant ERK2 (unknown origin)
Sequence of Mitogen-activated protein kinase 1 (P28482 whole entry): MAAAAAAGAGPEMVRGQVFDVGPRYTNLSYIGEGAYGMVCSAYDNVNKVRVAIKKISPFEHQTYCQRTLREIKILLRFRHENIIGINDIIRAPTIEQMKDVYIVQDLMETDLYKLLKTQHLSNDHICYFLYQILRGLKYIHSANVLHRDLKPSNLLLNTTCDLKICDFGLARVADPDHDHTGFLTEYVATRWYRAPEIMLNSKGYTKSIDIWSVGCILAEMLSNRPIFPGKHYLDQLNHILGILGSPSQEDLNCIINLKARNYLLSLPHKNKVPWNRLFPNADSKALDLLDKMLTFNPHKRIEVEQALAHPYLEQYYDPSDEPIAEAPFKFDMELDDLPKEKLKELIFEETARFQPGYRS

[8] = target: Serine/threonine-protein kinase haspin (Homo sapiens, UniProt Q8TF76); experiment: Inhibition of recombinant Haspin (unknown origin)
Sequence of Serine/threonine-protein kinase haspin (Q8TF76 whole entry): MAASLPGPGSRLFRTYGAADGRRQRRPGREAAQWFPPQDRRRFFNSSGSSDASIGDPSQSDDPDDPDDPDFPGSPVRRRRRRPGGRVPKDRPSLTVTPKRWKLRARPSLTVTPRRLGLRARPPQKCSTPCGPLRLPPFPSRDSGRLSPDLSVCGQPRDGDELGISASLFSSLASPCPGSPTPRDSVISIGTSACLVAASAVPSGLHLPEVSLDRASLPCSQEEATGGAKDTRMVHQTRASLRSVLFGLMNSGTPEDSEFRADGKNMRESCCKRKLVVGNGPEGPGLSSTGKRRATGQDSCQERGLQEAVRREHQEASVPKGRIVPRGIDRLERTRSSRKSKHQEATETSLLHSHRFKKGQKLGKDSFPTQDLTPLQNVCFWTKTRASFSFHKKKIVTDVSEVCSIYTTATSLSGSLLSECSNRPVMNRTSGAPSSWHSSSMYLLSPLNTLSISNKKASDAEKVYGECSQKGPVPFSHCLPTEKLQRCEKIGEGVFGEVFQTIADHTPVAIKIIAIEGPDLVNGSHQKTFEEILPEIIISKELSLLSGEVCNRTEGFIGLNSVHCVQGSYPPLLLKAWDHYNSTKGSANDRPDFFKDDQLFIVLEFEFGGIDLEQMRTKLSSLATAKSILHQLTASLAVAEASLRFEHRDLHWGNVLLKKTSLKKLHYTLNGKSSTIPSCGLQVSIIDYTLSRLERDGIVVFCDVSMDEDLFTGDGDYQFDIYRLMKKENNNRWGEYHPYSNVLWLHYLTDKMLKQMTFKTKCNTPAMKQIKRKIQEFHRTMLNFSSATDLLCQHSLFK

[9] = target: RAC-alpha serine/threonine-protein kinase (Homo sapiens, UniProt P31749); experiment: Inhibition of recombinant AKT1 (unknown origin)
[10] = target: High affinity nerve growth factor receptor (Homo sapiens, UniProt P04629); experiment: Inhibition of recombinant TRKA (unknown origin)
[11] = Inhibition of recombinant ABL (unknown origin); design: species or system Homo sapiens
[12] = target: Vascular endothelial growth factor receptor 2 (Homo sapiens, UniProt P35968); experiment: Inhibition of recombinant VEGFR2 (unknown origin)
[13] = target: Proto-oncogene tyrosine-protein kinase receptor Ret (Homo sapiens, UniProt P07949); experiment: Inhibition of recombinant RET (unknown origin)
[14] = target: Maternal embryonic leucine zipper kinase (Homo sapiens, UniProt Q14680); experiment: Inhibition of recombinant MELK (unknown origin)
[15] = Inhibition of recombinant AUR1 (unknown origin); design: species or system Homo sapiens
[16] = target: CDC7/DBF4 (Cell division cycle 7-related protein kinase/Activator of S phase kinase) (Homo sapiens, UniProt O00311); experiment: Inhibition of recombinant CDC7/DBF4 (unknown origin); type: protein-complex assay
[17] = target: ALK tyrosine kinase receptor (Homo sapiens, UniProt Q9UM73); experiment: Inhibition of recombinant ALK (unknown origin)
[18] = target: Tyrosine-protein kinase Lyn (Homo sapiens, UniProt P07948); experiment: Inhibition of recombinant LYN (unknown origin)
Casein kinase 2 = Casein kinase 2 (Homo sapiens, UniProt P67870+P68400+P19784+Q8NEV1); experiment: Inhibition of recombinant CK2 (unknown origin); type: protein assay
[19] = target: Tyrosine-protein kinase JAK1 (Homo sapiens, UniProt P23458); experiment: Inhibition of recombinant JAK1 (unknown origin)
[20] = target: Fibroblast growth factor receptor 1 (Homo sapiens, UniProt P11362); experiment: Inhibition of recombinant FGFR1 (unknown origin)
[21] = target: Serine/threonine-protein kinase PLK1 (Homo sapiens, UniProt P53350); experiment: Inhibition of recombinant PLK1 (unknown origin)
[22] = target: Serine/threonine-protein kinase pim-1 (Homo sapiens, UniProt P11309); experiment: Inhibition of recombinant PIM1 (unknown origin)
Sequence of Serine/threonine-protein kinase pim-1 (P11309 whole entry): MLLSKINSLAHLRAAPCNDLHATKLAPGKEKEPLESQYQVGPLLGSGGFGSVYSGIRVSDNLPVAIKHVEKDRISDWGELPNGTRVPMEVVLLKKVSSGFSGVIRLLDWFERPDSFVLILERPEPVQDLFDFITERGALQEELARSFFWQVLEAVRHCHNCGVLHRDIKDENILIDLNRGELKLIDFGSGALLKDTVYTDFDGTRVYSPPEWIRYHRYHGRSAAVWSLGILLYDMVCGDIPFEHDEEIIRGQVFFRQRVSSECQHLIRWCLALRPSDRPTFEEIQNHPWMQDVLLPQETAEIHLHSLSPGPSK

[23] = target: Protein-tyrosine kinase 6 (Homo sapiens, UniProt Q13882); experiment: Inhibition of recombinant BRK (unknown origin)
[24] = target: Mast/stem cell growth factor receptor Kit (Homo sapiens, UniProt P10721); experiment: Inhibition of recombinant KIT (unknown origin)
[25] = target: Receptor-type tyrosine-protein kinase FLT3 (Homo sapiens, UniProt P36888); experiment: Inhibition of recombinant FLT3 (unknown origin)
Insulin receptor = Insulin receptor (Homo sapiens, UniProt P06213); experiment: Inhibition of recombinant IR (unknown origin)
[26] = target: MAP kinase-activated protein kinase 2 (Homo sapiens, UniProt P49137); experiment: Inhibition of recombinant MAPKAPK2 (unknown origin)
[27] = target: Serine/threonine-protein kinase pim-2 (Homo sapiens, UniProt Q9P1W9); experiment: Inhibition of recombinant PIM2 (unknown origin)
Sequence of Serine/threonine-protein kinase pim-2 (Q9P1W9 whole entry): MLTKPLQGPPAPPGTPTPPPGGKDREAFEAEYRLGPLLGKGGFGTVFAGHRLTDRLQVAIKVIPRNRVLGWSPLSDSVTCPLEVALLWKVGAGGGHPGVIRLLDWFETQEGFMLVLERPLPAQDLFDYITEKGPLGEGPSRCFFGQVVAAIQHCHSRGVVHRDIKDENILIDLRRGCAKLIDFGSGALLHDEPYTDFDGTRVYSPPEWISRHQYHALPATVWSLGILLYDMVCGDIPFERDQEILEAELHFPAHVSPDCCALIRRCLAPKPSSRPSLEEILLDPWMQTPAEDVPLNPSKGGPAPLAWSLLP

[28] = target: Tyrosine-protein kinase ZAP-70 (Homo sapiens, UniProt P43403); experiment: Inhibition of recombinant ZAP70 (unknown origin)
Sequence of Tyrosine-protein kinase ZAP-70 (P43403 whole entry): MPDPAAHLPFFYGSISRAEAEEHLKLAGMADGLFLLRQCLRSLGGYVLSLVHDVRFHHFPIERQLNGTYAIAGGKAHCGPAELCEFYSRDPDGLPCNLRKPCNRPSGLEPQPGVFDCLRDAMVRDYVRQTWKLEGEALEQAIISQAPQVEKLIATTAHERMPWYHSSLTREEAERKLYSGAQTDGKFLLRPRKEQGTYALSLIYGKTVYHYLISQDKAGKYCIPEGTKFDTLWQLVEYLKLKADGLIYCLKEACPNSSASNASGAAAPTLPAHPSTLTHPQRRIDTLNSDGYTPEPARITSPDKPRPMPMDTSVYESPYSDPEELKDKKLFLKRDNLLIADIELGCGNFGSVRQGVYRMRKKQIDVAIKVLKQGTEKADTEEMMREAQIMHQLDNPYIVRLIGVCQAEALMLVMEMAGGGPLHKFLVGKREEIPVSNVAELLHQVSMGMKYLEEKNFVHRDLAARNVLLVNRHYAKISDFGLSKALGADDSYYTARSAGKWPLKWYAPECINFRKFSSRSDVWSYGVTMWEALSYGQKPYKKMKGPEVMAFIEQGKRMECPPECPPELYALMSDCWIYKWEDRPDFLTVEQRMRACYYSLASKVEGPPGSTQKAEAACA

[29] = target: Serine/threonine-protein kinase NIM1 (Homo sapiens, UniProt Q8IY84); experiment: Inhibition of recombinant NIM1 (unknown origin)
[30] = Inhibition of recombinant SULU1 (unknown origin); design: species or system Homo sapiens
[31] = target: Protein kinase C beta type (Homo sapiens, UniProt P05771); experiment: Inhibition of recombinant PKCbeta (unknown origin)
Sequence of Protein kinase C beta type (P05771 whole entry): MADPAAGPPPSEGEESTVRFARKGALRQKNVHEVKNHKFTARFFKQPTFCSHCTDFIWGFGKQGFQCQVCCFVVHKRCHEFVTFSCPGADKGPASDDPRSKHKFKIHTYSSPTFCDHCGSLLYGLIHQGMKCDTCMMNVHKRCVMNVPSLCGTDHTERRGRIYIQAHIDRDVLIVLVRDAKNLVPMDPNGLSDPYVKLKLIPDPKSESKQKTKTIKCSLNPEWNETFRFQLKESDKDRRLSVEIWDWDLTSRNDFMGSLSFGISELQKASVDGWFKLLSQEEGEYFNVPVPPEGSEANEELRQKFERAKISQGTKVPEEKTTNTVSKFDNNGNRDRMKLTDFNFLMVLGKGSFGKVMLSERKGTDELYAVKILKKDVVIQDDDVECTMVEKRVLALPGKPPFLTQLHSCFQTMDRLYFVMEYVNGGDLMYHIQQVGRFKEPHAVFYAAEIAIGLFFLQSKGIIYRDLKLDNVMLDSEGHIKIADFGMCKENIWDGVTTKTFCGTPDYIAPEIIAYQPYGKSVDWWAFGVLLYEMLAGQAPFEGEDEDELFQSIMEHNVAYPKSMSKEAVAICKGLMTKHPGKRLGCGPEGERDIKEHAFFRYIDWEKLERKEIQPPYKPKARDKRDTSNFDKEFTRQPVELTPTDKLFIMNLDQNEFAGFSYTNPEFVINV

[32] = target: Eukaryotic elongation factor 2 kinase (Homo sapiens, UniProt O00418); experiment: Inhibition of recombinant EEF2K (unknown origin)
[33] = target: Tyrosine-protein kinase Lck (Homo sapiens, UniProt P06239); experiment: Inhibition of recombinant LCK (unknown origin)
[34] = target: Tyrosine-protein kinase JAK3 (Homo sapiens, UniProt P52333); experiment: Inhibition of recombinant JAK3 (unknown origin)
[35] = target: Serine/threonine-protein kinase Chk1 (Homo sapiens, UniProt O14757); experiment: Inhibition of recombinant CHK1 (unknown origin)
[36] = Inhibition of recombinant AUR2 (unknown origin); design: species or system Homo sapiens
Activated CDC42 kinase 1 = Activated CDC42 kinase 1 (Homo sapiens, UniProt Q07912); experiment: Inhibition of recombinant ACK1 (unknown origin)
[37] = target: Vascular endothelial growth factor receptor 3 (Homo sapiens, UniProt P35916); experiment: Inhibition of recombinant VEGFR3 (unknown origin)
[38] = target: Inhibitor of nuclear factor kappa-B kinase subunit beta (Homo sapiens, UniProt O14920); experiment: Inhibition of recombinant IKK2 (unknown origin)
[39] = Inhibition of recombinant PDGFR (unknown origin); design: species or system Homo sapiens
[40] = target: T1, Dual specificity protein kinase TTK; experiment: Inhibition of recombinant MPS1 (unknown origin)
Focal adhesion kinase 1 = Focal adhesion kinase 1 (Homo sapiens, UniProt Q05397); experiment: Inhibition of recombinant FAK (unknown origin)
[41] = target: Glycogen synthase kinase-3 beta (Homo sapiens, UniProt P49841); experiment: Inhibition of recombinant GSK3beta (unknown origin)
Sequence of Glycogen synthase kinase-3 beta (P49841 whole entry): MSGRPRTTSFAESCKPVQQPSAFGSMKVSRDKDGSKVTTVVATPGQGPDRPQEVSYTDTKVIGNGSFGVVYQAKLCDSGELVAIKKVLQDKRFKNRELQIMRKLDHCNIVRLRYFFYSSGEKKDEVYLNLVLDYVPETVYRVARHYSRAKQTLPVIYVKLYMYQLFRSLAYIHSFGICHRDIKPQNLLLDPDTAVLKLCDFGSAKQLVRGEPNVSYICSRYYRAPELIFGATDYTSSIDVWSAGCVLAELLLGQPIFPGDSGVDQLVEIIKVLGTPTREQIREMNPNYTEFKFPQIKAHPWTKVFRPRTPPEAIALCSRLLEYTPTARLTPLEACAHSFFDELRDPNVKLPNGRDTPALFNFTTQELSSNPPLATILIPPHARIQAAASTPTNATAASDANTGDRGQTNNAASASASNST

[42] = target: Serine/threonine-protein kinase PAK 4 (Homo sapiens, UniProt O96013); experiment: Inhibition of recombinant PAK4 (unknown origin)

## COc1cc2c(Nc3ccc(NC(=O)c4ccccc4)cc3)ncnc2cc1OCCCN1CCOCC1
[1]; u2os
  pEC50: 5.64

## Cn1c2ccccc2c2c3c(c4c5ccccc5n(CCC#N)c4c21)CNC3=O [GO-6976]
[1]; u2os
  pEC50: 5.70

## O=C1c2ccccc2-c2n[nH]c3cccc1c23
[2]
  pIC50: < 5.00
[3]
  pIC50: < 5.00
[4]
  pIC50: < 5.00
[5]
  pIC50: 6.06
[6]
  pIC50: < 5.00
[7]
  pIC50: < 5.00
[8]
  pIC50: 6.29
[9]
  pIC50: < 5.00
[10]
  pIC50: 7.15
[11]
  pIC50: < 5.00
[12]
  pIC50: 5.53
[13]
  pIC50: 5.96
[14]
  pIC50: 6.96
[15]
  pIC50: 7.22
[16]
  pIC50: 5.80
[17]
  pIC50: < 5.00
[1]
  pEC50: 5.05
[18]
  pIC50: < 5.00
Casein kinase 2
  IC50: 650 nM
[19]
  pIC50: 5.33
[20]
  pIC50: 5.62
[21]
  pIC50: < 5.00
[22]
  pIC50: 5.48
[23]
  pIC50: < 5.00
[24]
  pIC50: 6.06
[25]
  pIC50: 7.05
Insulin receptor
  pIC50: 5.40
[26]
  pIC50: < 5.00
[27]
  pIC50: 5.98
[28]
  pIC50: < 5.00
[29]
  pIC50: < 5.00
[30]
  pIC50: < 5.00
[31]
  pIC50: < 5.00
[32]
  pIC50: < 5.00
[33]
  pIC50: < 5.00
[34]
  pIC50: 6.39
[35]
  pIC50: < 5.00
[36]
  pIC50: 6.72
Activated CDC42 kinase 1
  pIC50: 5.64
[37]
  pIC50: 6.52
[38]
  pIC50: 5.99
[39]
  pIC50: < 5.00
[40]
  pIC50: 5.71
Focal adhesion kinase 1
  pIC50: 5.41
[41]
  pIC50: < 5.00
[42]
  pIC50: < 5.00
